The values that follow are results of earlier work, collected in US6924277B2, “Cyclized benzamide neurokinin antagonists for use in therapy” (AstraZeneca AB, priority 2000, dated 2005).

Like-named read-outs stand apart in the source and are kept apart here. Peptide text beside a SMILES is read from it.

For series [1] the following is noted: Forced swim test (depression model); only at 30 mg/kg bid; Vassout et al, Neuropeptides 26/S1: 38, 1994.
For series [2] the following is noted: Elevated plus-maze.
For series [3] the following is noted: Light-dark box.
For series [4], the system named is Marmoset. The conditions noted are these: Marmoset human intruder; Walsh et al., Psychopharmacology 121: 186-191, 1995.
The mark [5] stands for this setting: Teixeira et al., Eur J Pharmacol 311(1): 7-14, 1996.
Setting [6] is: Stratton et al., Eur. J. Pharmacol. 250: R11-12, 1993.
Where [7] appears, read: Walsh et al., Psychopharmacology 121: 186-191, 1995.

Turning to `Cc1cc(C)cc(C(=O)N2CC[C@H](NCc3ccnc4ccccc34)C[C@H]2Cc2ccccc2)c1` [CGP 49823], the Outcome result in series [1] is recorded as “antidepressant”; the Outcome entry in series [2] (Vassout et al, Neuropeptides 26/S1: 38, 1994) was “inactive”; the Outcome result (Social interaction test, Vassout et al, Neuropeptides 26/S1: 38, 1994) is on record as “anxiolytic”; the Outcome result (Social interaction, File, Pharm Bio B 58(3): 747-752, 1997) is given as “anxiolytic”.
As to `CN(Cc1ccccc1)C(=O)[C@H](Cc1ccc2ccccc2c1)NC(=O)[C@@H]1C[C@@H](O)CN1C(=O)c1cn(C)c2ccccc12` [FK888], the Outcome entry in series [2] (setting [5]) is “anxiolytic”.
For the compound `C[C@H](NC(=O)CNC(=O)C1CCCCC1)C(=O)N[C@H](Cc1c[nH]c2ccccc12)C(=O)N[C@@H](Cc1ccccc1)C(=O)N(C)C` [GR100679] (HELM PEPTIDE1{[O=C(C1CCCCC1)[*:2]].G.A.[dW].F.[CN(C)[*:1]]}$$$$V2.0), the Outcome result in series [3] (setting [6]) is reported as “anxiolytic”.
For the compound `COC1(C[S@@+]([O-])c2ccccc2)CCN(CCc2c[nH]c3ccc(F)cc23)CC1` [GR159897], the Outcome entry in series [3] (setting [7]) and in series [4] was “anxiolytic” in each case.
With `CC(=O)NC1(c2ccccc2)CCN(CC[C@H](CN(C)C(=O)c2ccccc2)c2ccc(Cl)c(Cl)c2)CC1` [SR48968], the Outcome result in series [3] (setting [6]), in series [3] (setting [7]), in series [2] (setting [5]) and in series [4] was “anxiolytic” in each case.
